From US20110256565A1, “METHODS FOR DIAGNOSIS AND TREATMENT OF NEURODEGENERATIVE DISEASES OR DISORDERS” (priority 2008, published 2011)

Legend:
[1] = system: neuroblastoma cells; conditions: cited from earlier work
[2] = biological target: GSK3B (Homo sapiens, UniProt P49841); conditions: cited from earlier work
[3] = system: PS-mutant MEFs; test: Cinnamycin sensitivity, live/dead assay in MEFs; assay type: cell-based, mouse; conditions: PS-mutant MEFs vs. control MEFs; 1 μM cinnamycin for 10 min at 37° C., live/dead assay (FIG. 41D)
Method: FIG. 41. Phospholipid synthesis in MEFs. FIG. 41A: Synthesis of PtdSer and PtdEtn after 3H-Ser labeling for the indicated times (hours) (n=3). FIG. 41B: Pulse-chase. MEFs labeled for 1 h with 3H-Ser; chase with cold Ser (n=3). FIG. 41C: Phospholipid synthesis in crude mitochondria (n=3 or 4) Error bars, SE; p<0.05. FIG. 41D: Cinnamycin sensitivity in MEFs. Left: Live/dead assay (1 μM cinnamycin for 10 min at 37° C.). Right: Cinnamycin-sensitivity assay (10 min at 37° C.).
AD patients have aberrant phospholipid profiles, both in fibroblasts and in brain (Pettegrew et al., (2001) Neurochem. Res. 26, 771-782; Murphy et al., (2006) Brain Res. Bull. 69, 79-85). PtdSer and PtdEtn are exported to the inner leaflet of the plasma membrane (Vance (2008) J. Lipid Res. 49, 1377-1387). […] Both the 3H-Ser and cinnamycin results are relevant to the pathogenesis of AD.
Cinnamycin sensitivity assays. To measure cinnamycin binding (Emoto et al. (1999) Proc. Natl. Acad. Sci. USA 96:12400-12405), cells are incubated with 125I-labeled streptavidin complexed with cinnamycin (Ro 09-0198) peptide complex (1251-SA-Cin; 50,000 cpm/ml; Sigma) for 1 h at 39.5° C. The radioactivities of 125I-SA-Cin bound to the cells is analyzed by bioimage analyzer. […] Viability will be measured by “live/dead” assay (Molecular Probes).

[4] = system: human erythrocytes; conditions: incubation time ~2 min, 37° C., read-out: LC50 (concentration to kill 50% of the cells); cited from earlier work
[5] = system: fibroblasts from FAD patients with pathogenic mutations in PS1 and from sporadic AD (SAD) patients; test: Cinnamycin sensitivity, Live/Dead assay in patient fibroblasts; assay type: cell-based, human; conditions: 1 μM cinnamycin for 10 min at 37° C.; fibroblasts from SAD patients (FIG. 43)
Method: FIG. 43. Cinnamycin sensitivity in fibroblasts from FAD patients with pathogenic mutations in PS1 (PS1) and from sporadic AD (SAD) patients. Cells were treated with 1 μM cinnamycin for 10 min at 37° C., and viabitlity was monitored by Live/Dead assay.

GSK3B, sequence (P49841 whole entry, species assumed): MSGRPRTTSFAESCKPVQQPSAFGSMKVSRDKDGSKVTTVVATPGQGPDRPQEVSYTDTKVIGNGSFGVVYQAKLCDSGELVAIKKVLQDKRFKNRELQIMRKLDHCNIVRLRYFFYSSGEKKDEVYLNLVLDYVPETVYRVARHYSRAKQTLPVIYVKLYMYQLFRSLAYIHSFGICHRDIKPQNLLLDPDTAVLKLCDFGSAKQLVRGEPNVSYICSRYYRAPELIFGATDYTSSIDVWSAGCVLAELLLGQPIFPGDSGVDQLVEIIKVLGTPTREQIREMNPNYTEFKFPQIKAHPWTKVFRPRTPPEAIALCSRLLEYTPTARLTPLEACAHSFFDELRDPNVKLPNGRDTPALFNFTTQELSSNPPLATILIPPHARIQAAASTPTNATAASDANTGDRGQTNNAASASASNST

Compound: O=C1NC(=O)C(c2ccccc2[N+](=O)[O-])=C1Nc1ccc(O)c(Cl)c1 [SB415286]
- Effect on neurite outgrowth [1]: inhibit neurite outgrowth

Compound: Cn1sc(=O)n(Cc2ccccc2)c1=O [TDZD-8]
- Effect on GSK3B activity [2]: inhibit GSK3B activity

Compound: cinnamycin
- Sensitivity to cinnamycin vs. controls [3]: more sensitive
- CC50 [4]: ~1000 µM
- Cinnamycin sensitivity (viability by Live/Dead assay) [5]: cinnamycin sensitivity in the SAD patients
